The values that follow come from paper PMC8460406, “PET/CT imaging of head-and-neck and pancreatic cancer in humans by targeting the “Cancer Integrin” αvβ6 with Ga-68-Trivehexin” (European Journal of Nuclear Medicine and Molecular Imaging, 2021).

Like-named read-outs stand apart in the source and are kept apart here.

One data set deals with αvβ3-integrin (Homo sapiens, UniProt P05106+P06756). In words: ELISA on immobilized integrins (integrin affinity), αvβ3. Format: binding. The settings on record: for IC50: 95% confidence interval in parentheses; for αvβ6-selectivity over αvβ3: IC50-based factor. An excerpt:
(§1) Materials, reagents, general procedures, and instrumentation used for chemical syntheses and analyses have been detailed elsewhere. In addition to what has been reported before, the building block TRAP(azide)3 was purchased from Fosfinos s.r.o. (Kladno, CZ). c[FGDLAFp(NMe)K(pentynoic amide)] and TRAP(AvB6)3 were synthesized according to the literature. Previously described protocols were followed for determination of integrin affinities by ELISA on immobilized integrins and for β6-integrin immunohistochemistry (IHC).
(An ELISA detects its analyte on a solid surface through an enzyme-linked reagent.)

Another data set has as its target α5β1-integrin (Homo sapiens, UniProt P05556+P08648). In words: ELISA on immobilized integrins (integrin affinity), α5β1. Format: binding. The conditions noted are these: for αvβ6-selectivity over α5β1: IC50-based factor.
Source text: as §1

The target in data set [1] is T1, αvβ6-integrin (Homo sapiens, UniProt P06756+P18564). In words: ELISA on immobilized integrins (integrin affinity), αvβ6. Type of data set: binding. The settings on record: 95% confidence interval in parentheses.
T1 sequence (P06756 31-992 limits assumed): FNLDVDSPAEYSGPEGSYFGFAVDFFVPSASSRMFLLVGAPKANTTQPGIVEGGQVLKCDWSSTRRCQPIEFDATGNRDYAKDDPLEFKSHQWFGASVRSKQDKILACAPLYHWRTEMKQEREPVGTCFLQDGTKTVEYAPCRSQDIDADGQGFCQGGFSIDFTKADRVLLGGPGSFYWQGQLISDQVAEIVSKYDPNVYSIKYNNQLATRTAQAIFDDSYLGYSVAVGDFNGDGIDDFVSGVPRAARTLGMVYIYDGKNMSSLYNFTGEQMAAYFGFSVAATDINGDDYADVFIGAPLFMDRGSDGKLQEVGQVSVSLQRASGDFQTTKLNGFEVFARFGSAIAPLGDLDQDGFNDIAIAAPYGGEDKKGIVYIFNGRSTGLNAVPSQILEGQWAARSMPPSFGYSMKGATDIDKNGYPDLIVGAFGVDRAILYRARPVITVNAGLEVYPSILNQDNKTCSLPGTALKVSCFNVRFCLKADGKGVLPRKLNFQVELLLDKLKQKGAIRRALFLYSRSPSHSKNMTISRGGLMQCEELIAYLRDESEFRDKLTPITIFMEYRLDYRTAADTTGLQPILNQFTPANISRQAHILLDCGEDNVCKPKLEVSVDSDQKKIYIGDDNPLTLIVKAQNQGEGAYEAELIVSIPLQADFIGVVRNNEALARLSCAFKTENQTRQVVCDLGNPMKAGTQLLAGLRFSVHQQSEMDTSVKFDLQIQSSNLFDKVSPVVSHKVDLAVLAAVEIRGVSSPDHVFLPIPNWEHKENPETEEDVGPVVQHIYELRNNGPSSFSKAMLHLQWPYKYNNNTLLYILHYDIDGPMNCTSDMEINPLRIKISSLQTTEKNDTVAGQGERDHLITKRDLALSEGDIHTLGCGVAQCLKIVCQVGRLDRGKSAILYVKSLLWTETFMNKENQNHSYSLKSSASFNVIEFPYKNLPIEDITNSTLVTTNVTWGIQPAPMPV
T1 sequence (P18564 22-707 limits assumed): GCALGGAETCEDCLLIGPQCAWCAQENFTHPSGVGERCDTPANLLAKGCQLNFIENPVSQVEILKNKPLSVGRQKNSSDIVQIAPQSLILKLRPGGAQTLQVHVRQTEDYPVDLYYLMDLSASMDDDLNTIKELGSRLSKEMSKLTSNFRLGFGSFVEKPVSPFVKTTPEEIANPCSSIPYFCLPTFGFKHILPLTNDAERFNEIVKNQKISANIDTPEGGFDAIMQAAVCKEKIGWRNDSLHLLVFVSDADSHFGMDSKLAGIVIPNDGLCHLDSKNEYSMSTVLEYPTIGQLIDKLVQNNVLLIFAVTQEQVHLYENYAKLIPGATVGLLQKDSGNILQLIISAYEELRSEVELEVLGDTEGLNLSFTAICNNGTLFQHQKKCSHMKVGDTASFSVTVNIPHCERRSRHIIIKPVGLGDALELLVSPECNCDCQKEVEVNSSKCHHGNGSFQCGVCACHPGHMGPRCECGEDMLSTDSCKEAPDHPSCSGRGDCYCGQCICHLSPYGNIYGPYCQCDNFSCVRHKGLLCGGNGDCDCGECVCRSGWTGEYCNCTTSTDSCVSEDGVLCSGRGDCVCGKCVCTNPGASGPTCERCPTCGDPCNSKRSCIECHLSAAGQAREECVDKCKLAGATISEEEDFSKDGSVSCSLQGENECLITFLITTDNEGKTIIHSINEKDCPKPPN
Source text: as §1

For the next data set, the target named is αvβ8-integrin (Homo sapiens, UniProt P06756+P26012). In words: ELISA on immobilized integrins (integrin affinity), αvβ8. Type of data set: binding. The settings on record: for IC50: 95% confidence interval in parentheses; for αvβ6-selectivity over αvβ8: IC50-based factor.
Sequence of αvβ8-integrin (P06756 31-992 limits assumed): as the sequence (P06756 31-992 limits assumed) above
Sequence of αvβ8-integrin (P26012 43-684 limits assumed): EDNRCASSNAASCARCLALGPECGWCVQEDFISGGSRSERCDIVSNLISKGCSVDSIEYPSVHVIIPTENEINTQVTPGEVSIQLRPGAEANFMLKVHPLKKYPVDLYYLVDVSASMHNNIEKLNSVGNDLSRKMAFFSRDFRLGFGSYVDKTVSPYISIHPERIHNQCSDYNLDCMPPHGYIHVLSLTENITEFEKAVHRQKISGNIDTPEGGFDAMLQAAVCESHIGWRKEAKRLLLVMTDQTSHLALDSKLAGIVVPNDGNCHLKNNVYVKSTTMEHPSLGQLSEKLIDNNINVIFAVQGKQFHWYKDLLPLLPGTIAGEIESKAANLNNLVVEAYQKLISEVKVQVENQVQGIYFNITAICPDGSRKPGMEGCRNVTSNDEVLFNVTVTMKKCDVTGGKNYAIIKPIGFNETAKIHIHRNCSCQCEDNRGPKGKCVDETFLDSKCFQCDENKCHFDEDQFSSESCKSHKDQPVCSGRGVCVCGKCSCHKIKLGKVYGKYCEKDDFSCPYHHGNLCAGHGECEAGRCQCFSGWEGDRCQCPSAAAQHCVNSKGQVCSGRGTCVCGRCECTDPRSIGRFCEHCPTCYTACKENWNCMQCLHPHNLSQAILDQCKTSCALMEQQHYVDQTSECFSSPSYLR
Source text: as §1

In data set [2] the test system is αvβ6-integrin expressing carcinomas. Description: PET/CT imaging of carcinomas in human (HNSCC, parotideal adenocarcinoma, PDAC). Type of data set: in vivo. On the procedure: All human participants provided written informed consent, also for publication of images, prior to the investigation. […] No significant changes in vital signs or the results of laboratory studies or electrocardiograms were observed. Data for a total of 4 human subjects were included in this report. The PET/CT for patient #1 was performed according to a previously published protocol, as was calculation of the dosimetric parameters.
A panendoscopy and tracheostomy were carried out 4 weeks prior to the [^18F]FDG. The tumor was not suitable for surgical removal and a simultaneous radiochemotherapy was indicated.
Patient #3 (Fig. 4C–E) was diagnosed with an adenocarcinoma (salivary duct carcinoma) in the right […] in 2019 and initially underwent total parotidectomy and unilateral neck dissection (pT2 pN1b [21/23] L1 V1 Pn1 R1). A post-resection and contralateral neck-dissection was performed 1 month later, followed by adjuvant radiation. In 2020 the patient developed prelaryngeal and lateral orbita angle metastases, which were resected and adjuvantly irradiated. […] Since no further tumor manifestations were present in both examinations, surgical resection was indicated and performed. β6-integrin IHC [21] was done for specimen of the excised metastasis.
Patient #4 was diagnosed with a carcinoma of the pancreatic head by endosonography and CT morphology. Pancreatic adenocarcinoma was verified by biopsy. […] According to this finding, surgical treatment was rejected and a chemotherapy regimen was started.

Data set [3] has as its target T1, αvβ6-integrin. The settings on record: cited from earlier work.
The next data set can be described thus: in vivo. The conditions noted are these: SCID, mouse, total radioactivity. From the text:
All animal experiments were approved by the responsible authority (Regierung von Oberbayern) and have been performed in accordance with general animal welfare regulations in Germany and the institutional guidelines for the care and use of animals. Keeping of the animals, generation of subcutaneous H2009 and MDA-MB-231 tumor xenografts, ex-vivo biodistribution studies, and µPET imaging were done according to previously described protocols. Multiplicity of PET and biodistribution studies ranged from 3 to 5; animal numbers for each individual experiment are denoted in the respective data tables in the Supporting Information and, additionally, in the Results section.

The format of data set [4] is physicochemical. The conditions noted are these: pH 7.4. An excerpt: Radiolabeling for preclinical experiments and determination of n-octanol–PBS distribution coefficients (log D7.4) was done as described. Applying this protocol, 5 nmol (0.5 nmol for cellular assays in order to maximize molar activity) of TRAP(AvB6)3 or Trivehexin were labeled with ^68 Ga at pH 2, resulting in RCY > 95%. The purity of the radiolabeled compounds was confirmed by radio-TLC, using silica impregnated glass fiber chromatography paper (ITLC® by Agilent) as stationary phase and 0.1 M aq. sodium citrate as mobile phase (purities were > 99%).

Setting [5] is: ref [34], read-out: IC50 (αvβ6-integrin affinity).

Sequence of αvβ3-integrin (P06756 31-1048): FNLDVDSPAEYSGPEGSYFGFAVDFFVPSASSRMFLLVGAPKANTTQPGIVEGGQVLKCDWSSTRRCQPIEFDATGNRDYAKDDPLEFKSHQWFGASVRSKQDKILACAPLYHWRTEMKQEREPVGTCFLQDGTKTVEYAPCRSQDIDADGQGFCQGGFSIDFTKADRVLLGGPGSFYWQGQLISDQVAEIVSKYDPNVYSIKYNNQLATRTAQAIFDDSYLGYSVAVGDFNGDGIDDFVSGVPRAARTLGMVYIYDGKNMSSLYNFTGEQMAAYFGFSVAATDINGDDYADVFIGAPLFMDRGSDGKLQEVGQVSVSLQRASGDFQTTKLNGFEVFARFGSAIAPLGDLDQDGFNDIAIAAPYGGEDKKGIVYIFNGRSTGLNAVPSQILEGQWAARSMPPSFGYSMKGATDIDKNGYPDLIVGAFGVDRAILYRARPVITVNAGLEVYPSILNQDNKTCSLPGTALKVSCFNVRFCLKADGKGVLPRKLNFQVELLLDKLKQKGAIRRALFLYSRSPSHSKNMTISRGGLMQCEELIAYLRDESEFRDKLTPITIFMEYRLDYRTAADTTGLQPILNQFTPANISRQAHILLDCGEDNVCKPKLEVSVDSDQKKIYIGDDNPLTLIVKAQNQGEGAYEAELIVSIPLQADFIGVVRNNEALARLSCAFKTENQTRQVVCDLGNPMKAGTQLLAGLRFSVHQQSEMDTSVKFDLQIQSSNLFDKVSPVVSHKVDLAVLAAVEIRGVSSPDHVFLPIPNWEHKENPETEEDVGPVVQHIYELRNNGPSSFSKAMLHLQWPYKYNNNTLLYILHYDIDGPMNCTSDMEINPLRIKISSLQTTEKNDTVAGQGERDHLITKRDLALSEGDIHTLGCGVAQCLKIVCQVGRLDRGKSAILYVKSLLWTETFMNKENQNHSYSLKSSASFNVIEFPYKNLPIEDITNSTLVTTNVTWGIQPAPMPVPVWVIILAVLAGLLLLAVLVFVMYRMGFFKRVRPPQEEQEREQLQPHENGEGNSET
Sequence of αvβ3-integrin (P05106 27-788): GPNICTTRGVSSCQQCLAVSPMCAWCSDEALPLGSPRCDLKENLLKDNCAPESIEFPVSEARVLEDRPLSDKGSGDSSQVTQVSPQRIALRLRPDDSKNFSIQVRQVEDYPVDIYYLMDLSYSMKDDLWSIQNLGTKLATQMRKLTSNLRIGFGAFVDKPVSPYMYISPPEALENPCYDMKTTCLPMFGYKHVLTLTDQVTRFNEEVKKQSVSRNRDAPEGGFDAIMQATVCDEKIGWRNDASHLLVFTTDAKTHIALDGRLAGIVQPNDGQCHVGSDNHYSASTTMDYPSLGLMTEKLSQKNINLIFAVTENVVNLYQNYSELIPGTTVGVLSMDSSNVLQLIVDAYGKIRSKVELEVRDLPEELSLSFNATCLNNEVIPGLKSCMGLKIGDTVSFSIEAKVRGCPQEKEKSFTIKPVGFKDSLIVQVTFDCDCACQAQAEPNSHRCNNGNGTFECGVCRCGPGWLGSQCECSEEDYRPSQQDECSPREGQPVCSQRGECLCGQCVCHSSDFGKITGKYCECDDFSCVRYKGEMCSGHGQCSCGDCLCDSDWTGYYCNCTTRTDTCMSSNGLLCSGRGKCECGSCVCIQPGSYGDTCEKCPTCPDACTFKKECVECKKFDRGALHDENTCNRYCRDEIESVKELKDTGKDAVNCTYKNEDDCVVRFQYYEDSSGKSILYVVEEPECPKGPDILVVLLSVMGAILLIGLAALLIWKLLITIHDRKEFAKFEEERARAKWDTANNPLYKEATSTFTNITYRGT

As for `C#CCCC(=O)NCCCC[C@H]1C(=O)N[C@@H](Cc2ccc(O)cc2)C(=O)N[C@@H](CCCNC(=N)N)C(=O)NCC(=O)N[C@@H](CC(=O)O)C(=O)N[C@@H](CC(C)C)C(=O)N[C@@H](C)C(=O)N[C@@H](Cc2ccc(O)cc2)C(=O)N2CCC[C@@H]2C(=O)N1C` [Tyr2-alkyne, c[YRGDLAYp(NMe)K(pentynoic amide)]], the IC50 on αvβ3-integrin was determined as 219 nM; at α5β1-integrin (95% confidence interval in parentheses), 150 nM; on αvβ6-integrin [1], 0.84 nM; on αvβ8-integrin, 26 nM. The “αvβ6-selectivity over αvβ3” value at αvβ3-integrin stood at 261. For the same molecule, at α5β1-integrin, the “αvβ6-selectivity over α5β1” value is given as 179. Also, the “αvβ6-selectivity over αvβ8” value on αvβ8-integrin is 31.

In the case of `OC[C@H]1OC(O)[C@H]([18F])[C@@H](O)[C@@H]1O` (some centres unmarked) [[^18F]FDG], in data set [2] (patient #2, 61-62 min p.i.), the “SUVmax around 7-week-old tracheostoma (inflammation)” value is recorded as 10.2. For the same molecule, the “SUVmax prelaryngeal cutaneous metastasis of parotideal adenocarcinoma” value in data set [2] (patient #3, 67-71 min p.i.) was determined as 6.1. In addition, the metabolic tumor volume in data set [2] (patient #3, prelaryngeal cutaneous metastasis) is recorded as 2.2 cm^3.

Regarding `CC(C)C[C@@H]1NC(=O)[C@H](CC(=O)O)NC(=O)CNC(=O)[C@H](CCCNC(=N)N)NC(=O)[C@H](Cc2ccccc2)NC(=O)[C@H](CCCCNC(=O)CCc2cn(CCCNC(=O)CCP(=O)(O)CN3CCN(CP(=O)(O)CCC(=O)NCCCn4cc(CCC(=O)NCCCC[C@H]5C(=O)N[C@@H](Cc6ccccc6)C(=O)N[C@@H](CCCNC(=N)N)C(=O)NCC(=O)N[C@@H](CC(=O)O)C(=O)N[C@@H](CC(C)C)C(=O)N[C@@H](C)C(=O)N[C@@H](Cc6ccccc6)C(=O)N6CCC[C@@H]6C(=O)N5C)nn4)CCN(CP(=O)(O)CCC(=O)NCCCn4cc(CCC(=O)NCCCC[C@H]5C(=O)N[C@@H](Cc6ccccc6)C(=O)N[C@@H](CCCNC(=N)N)C(=O)NCC(=O)N[C@@H](CC(=O)O)C(=O)N[C@@H](CC(C)C)C(=O)N[C@@H](C)C(=O)N[C@@H](Cc6ccccc6)C(=O)N6CCC[C@@H]6C(=O)N5C)nn4)CC3)nn2)N(C)C(=O)[C@H]2CCCN2C(=O)[C@H](Cc2ccccc2)NC(=O)[C@H](C)NC1=O` [^68 Ga-TRAP(AvB6)3], the IC50 on αvβ6-integrin [3] (ref [17], read-out: αvβ6-integrin affinity) was 0.023 nM. In addition, the tissue to tissue ratio at 1.5 h was found to be 3.7 in the data set “in vivo” (tumor/organ ratio Adrenals); 2.2 in “in vivo” (tumor/organ ratio Blood); 4.2 in the data set “in vivo” (tumor/organ ratio Heart (myocard)); 0.1 in “in vivo” (tumor/organ ratio Kidneys); 1.6 in “in vivo” (tumor/organ ratio Large intestine (empty)); 1.2 in “in vivo” (tumor/organ ratio Liver). Also, the tissue to tissue ratio at 1.5 h in the data set “in vivo” (tumor/organ ratio Lung) was determined as 0.6; in the data set “in vivo” (tumor/organ ratio Muscle), 8.1; in “in vivo” (tumor/organ ratio Pancreas) it was 10.1; in “in vivo” (tumor/organ ratio Small intestine (empty)), 2.2; in “in vivo” (tumor/organ ratio Spleen), 1.7; in the data set “in vivo” (tumor/organ ratio Stomach (empty)), 0.9. The “n-octanol-PBS distribution coefficient log D7.4” value in data set [4] is given as “− 1.5 ± 0.1”.

`C#CCCC(=O)NCCCC[C@H]1C(=O)N[C@@H](Cc2ccccc2)C(=O)N[C@@H](CCCNC(=N)N)C(=O)NCC(=O)N[C@@H](CC(=O)O)C(=O)N[C@@H](CC(C)C)C(=O)N[C@@H](C)C(=O)N[C@@H](Cc2ccccc2)C(=O)N2CCC[C@@H]2C(=O)N1C` [c[FRGDLAFp(NMe)K(pentynoic amide)], reference compound]: the IC50 was found to be 424 nM at αvβ3-integrin, 0.17 nM on αvβ6-integrin [1] and 32 nM on αvβ8-integrin. The “αvβ6-selectivity over αvβ3” value on αvβ3-integrin was determined as 2494. For the same molecule, at α5β1-integrin, the “αvβ6-selectivity over α5β1” value came out at 1329. Also, the “αvβ6-selectivity over αvβ8” value on αvβ8-integrin is on record as 188.

Take “c[FRGDLAYp(NMe)K] (FRGDLAYPK; HELM PEPTIDE1{F.R.G.D.L.A.Y.[dP].[meK]}$PEPTIDE1,PEPTIDE1,1:R1-9:R2$$$V2.0; SMILES CC(C)C[C@@H]1NC(=O)[C@H](CC(=O)O)NC(=O)CNC(=O)[C@H](CCCNC(=N)N)NC(=O)[C@H](Cc2ccccc2)NC(=O)[C@H](CCCCN)N(C)C(=O)[C@H]2CCCN2C(=O)[C@H](Cc2ccc(O)cc2)NC(=O)[C@H](C)NC1=O)”: the IC50 with αvβ6-integrin [3] (setting [5]) was 0.39 nM.

With “c[YRGDLAFp(NMe)K] (YRGDLAFPK; HELM PEPTIDE1{Y.R.G.D.L.A.F.[dP].[meK]}$PEPTIDE1,PEPTIDE1,1:R1-9:R2$$$V2.0; SMILES CC(C)C[C@@H]1NC(=O)[C@H](CC(=O)O)NC(=O)CNC(=O)[C@H](CCCNC(=N)N)NC(=O)[C@H](Cc2ccc(O)cc2)NC(=O)[C@H](CCCCN)N(C)C(=O)[C@H]2CCCN2C(=O)[C@H](Cc2ccccc2)NC(=O)[C@H](C)NC1=O)”, the IC50 with αvβ6-integrin [3] (setting [5]) is 0.4 nM.
